The values that follow come from ChEMBL document CHEMBL1135240, “Benzene fused monocyclic enediynyl amides: synthesis, reactivity and DNA-cleavage activity in comparison to the corresponding sulfonamides” (Bioorg Med Chem Lett, 2002).

Broadly, the half-life is how long it takes for the measured level to halve. A high value points to slow decline.

The nature of one data set: The compound was evaluated for rate constant at 70 deg. C. It counts as ADME.
In turn, `O=[N+]([O-])c1ccc(S(=O)(=O)N2CC#Cc3ccccc3C#CCC2)cc1` showed a Rate constant of 0.0143 h⁻¹.

In the case of `O=C(c1ccc([N+](=O)[O-])cc1)N1CC#Cc2ccccc2C#CCC1`, the Rate constant amounted to 0.0051 h⁻¹.

Compound `O=C(c1ccccc1)N1CC#Cc2ccccc2C#CCC1` yielded a Rate constant of 0.0037 h⁻¹.

Consider `O=[N+]([O-])c1ccc(S(=O)(=O)N2CC#Cc3ccccc3C#CCC2)c([N+](=O)[O-])c1`, for which the Rate constant stood at 0.0244 h⁻¹.

The next data set is described as follows: The compound was evaluated for half life at 70 deg. C. It counts as ADME.
Consider `O=[N+]([O-])c1ccc(S(=O)(=O)N2CC#Cc3ccccc3C#CCC2)cc1`, for which the half-life was 2.04 days.

`O=C(c1ccc([N+](=O)[O-])cc1)N1CC#Cc2ccccc2C#CCC1` gave a half-life of 5.67 days.

`O=C(c1ccccc1)N1CC#Cc2ccccc2C#CCC1` gave a half-life of 7.83 days.

Compound `O=[N+]([O-])c1ccc(S(=O)(=O)N2CC#Cc3ccccc3C#CCC2)c([N+](=O)[O-])c1` had a half-life of 1.17 days.
